Starred links: 1 amine or outer side, 2 acyl side, 3 side chain; linkers in the order of their positions; H or OH if unused. Positions of bridges follow the written chain, without caps; N, C: chain ends. Non-standard residues stand in square brackets, D forms with d. Residues, ends and D or L forms follow the SMILES beside them. Chains are numbered I, II in the order given. Actinocin(9to1) = Cc1c2oc3c(C)ccc(C(=O)[*:1])c3nc-2c(C(=O)[*:2])c(N)c1=O; NMeV = CN[C@H](C(=O)O)C(C)C; Sar = CNCC(=O)O
Experiments:
K-562 cells = assay: MTS cytotoxicity assay; assay type: cell-based; conditions: 3 days exposure
From the text: di-Methylthiozol Tetrazolium (MTT assay): Proliferation assays are used in cell biology for the study of growth factors, cytokines and cytotoxic agents. There are several ways to measure the number of cells in a proliferation assay. MTT assay is a rapid and convenient method of determining viable cells in proliferation, cell attachment, chemotaxis and apoptosis assays.
di-Methylthiozol Tetrazolium Salt (MTS assay): MTS assay is a rapid and convenient method of determining viable cells in proliferation or cytotoxic assays. The use of this analog of MTT, provides a stable reaction over time. MTS assay is based on the cellular conversion of a tetrazolium salt into a formozan product that is soluble in tissue culture media and can easily be detected using a 96-well plate reader. This conversion is presumably accomplished by NADPH or NADH produced by dehydrogenases enzymes present in metabolically active cells. MTS is preferred over MTT because the MTS formazan product is soluble in tissue culture medium. In addition the MTS assay require fewer steps than MTT assay. Consequently, we have used MTS for our testing. MTS assay-Method: K-562 (typical cancer cell line used for cytotoxicity assays) cells were seeded in 96-well plates at a concentration of 2.5×10^4 cells/ml. Oosporein and Actinomycin D (a known cytotoxic compound) were prepared in 10% DMSO and added to cells the next day (final DMSO concentration was 0.5%). Oosporein was assessed at a final concentration on the cells of 100, 50, 25, 12.5, 6.25 and 3.125 μg/ml (2-fold dilutions) in quadruplicate. A known toxic agent, Actinomycin D, was added at 100, 20, 4, 0.8 and 0.16 ng/ml (5-fold dilutions). After 3 days exposure to test compound or controls, MTS reagent was prepared and added to the cells. After 3 hours, the accumulation of formazan product was determined by measuring the absorbance at 490 nm. The background absorbance of the cells detected at 630 nm was then subtracted from the initial 490 nm reading. Percent toxicity was determined using the following formula: [formula] [formula] […]

[1] = system: strain NC of Puccinia coronata; assay: Greenhouse experiment, pure compound Oosporein sprayed on inoculated oat seedlings (telia induction); assay type: in vivo, Puccinia coronata on oat (cv. Brooks) seedlings; conditions: table title strain NC (method text: strain MN); for Percentage of plants with telia: oat cv. Brooks seedlings, pure compound at 100 μg/ml applied four days after inoculation, mean of five replicates; for Telia intensity Rating: scale 0 = healthy to 3.0 = >15% of leaf area with telia, pure compound 100 μg/ml
Description: iv) Both crude extracts and fractions were tested at 10 mg/ml and the pure compound at 100 μg/ml
1.c. Greenhouse Experiments with the Pure Compound, Oosporein Isolated from of A. album (Aa 100 Isolate):
The pure compound (Oosporein) isolated from A. album (Aa 100) dissolved in 500 μl of DMSO and 9.5 ml of sterile distilled water (SDW) with 20 μl of Tween 80. The controls consisted of 500 μl of DMSO in 9.5 ml of SDW with 20 μl of Tween 80. and 10 ml of SDW with 20 μl of Tween 80. Ten ml of each treatment were atomized on 2-3 week-old, oat seedlings previously inoculated with strain MN of Puccinia coronata. Treatments were applied four days after inoculation when flecking symptoms of infection were present, but before uredia were observed (FIG. 1). There were five replicates of each treatment arranged in a randomized complete block design.

rusts = assay: Conversion of infective urediniospores to non-infective teliospores in rusts

Row | Structure (SMILES) | Percent toxicity on K-562 cells (K-562 cells; 100 ng/ml) | toxicity on K-562 cells (K-562 cells; 25 μg/ml or less) | toxicity on K-562 cells (K-562 cells; 100 and 50 μg/ml) | Percentage of plants with telia [1] | Percentage of plants with telia ([1]; listed as Ooosporein) | Telia intensity Rating [1] | Telia intensity Rating ([1]; listed as Ooosporein) | time to conversion of infective urediniospores to non-infective teliospores (rusts; after application) | conversion of infective urediniospores to non-infective teliospores (rusts; oat, bareley, wheat, pine and soybean rust)
1 | Cc1c2oc3c(C)ccc(C(=O)N[C@@H]4C(=O)N[C@H](C(C)C)C(=O)N5CCC[C@H]5C(=O)N(C)CC(=O)N(C)[C@@H](C(C)C)C(=O)O[C@@H]4C)c3nc-2c(C(=O)N[C@@H]2C(=O)N[C@H](C(C)C)C(=O)N3CCC[C@H]3C(=O)N(C)CC(=O)N(C)[C@@H](C(C)C)C(=O)O[C@@H]2C)c(N)c1=O [Actinomycin D, reference compound] (I: T[dV]P[Sar][NMeV] / II: T[dV]P[Sar][NMeV]; ester I:1-I:C, II:1-II:C; linker I:N-II:N via Actinocin(9to1)) | ~100% |  |  |  |  |  |  |  | 
2 | CC1=C(O)C(=O)C(C2=C(O)C(=O)C(C)=C(O)C2=O)=C(O)C1=O [Oosporein] |  | no toxicity whatsoever | very mild toxicity | 83% | higher percentage of plants with telia | 8.2 | greater intensity of telia | with in three days of application | convert infective urediniospores to non-infective teliospores

— patent US20070110726A1, “Rust disease control by Aphanocladium album and/or Beauveria brongniartii” (priority 2005, published 2007)
